The record followed here is patent US9309240B2, “Pyrazolopyridine compounds, compositions and methods of use” (F. HOFFMANN-LA ROCHE AG, priority 2010, dated 2016).

Counter-ions that a name gives are not always drawn.

This assay deals with T1, TYK2 kinase domain (Homo sapiens, UniProt P29597).
T1 construct: The activity of the isolated JAK1, JAK2 or TYK2 kinase domain was measured
T1 sequence (P29597 897-1176 limits assumed): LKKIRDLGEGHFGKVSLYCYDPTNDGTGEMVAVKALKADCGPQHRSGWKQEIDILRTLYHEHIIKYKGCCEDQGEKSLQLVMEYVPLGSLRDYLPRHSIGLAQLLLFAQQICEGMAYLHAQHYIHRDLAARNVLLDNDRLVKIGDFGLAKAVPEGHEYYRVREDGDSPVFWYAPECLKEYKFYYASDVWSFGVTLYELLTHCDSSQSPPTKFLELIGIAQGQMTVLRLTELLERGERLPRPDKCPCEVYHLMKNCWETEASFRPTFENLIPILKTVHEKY
As to the kind of experiment: JAK1, JAK2 and TYK2 Inhibition Assay Protocol (Example A): TYK2 kinase domain, Caliper LabChip peptide phosphorylation. The class given is biochemical. The settings on record: isolated TYK2 kinase domain, 1 nM enzyme, 25 uM ATP, Morrison tight binding model. The method, then: The activity of the isolated JAK1, JAK2 or TYK2 kinase domain was measured by monitoring phosphorylation of a peptide derived from JAK3 (Val-Ala-Leu-Val-Asp-Gly-Tyr-Phe-Arg-Leu-Thr-Thr) fluorescently labeled on the N-terminus with 5-carboxyfluorescein using the Caliper LabChip technology (Caliper Life Sciences, Hopkinton, Mass.). To determine the inhibition constants (Ki) of Examples 1-165, compounds were diluted serially in DMSO and added to 50 μL kinase reactions containing 1.5 nM JAK1, 0.2 nM purified JAK2 or 1 nM purified TYK2 enzyme, 100 mM Hepes pH7.2, 0.015% Brij-35, 1.5 uM peptide substrate, 25 uM ATP, 10 mM MgCl2, 4 mM DTT at a final DMSO concentration of 2%. Reactions were incubated at 22° C. in 384-well polypropylene microtiter plates for 30 minutes and then stopped by addition of 25 μL of an EDTA containing solution (100 mM Hepes pH 7.2, 0.015% Brij-35, 150 mM EDTA), resulting in a final EDTA concentration of 50 mM. After termination of the kinase reaction, the proportion of phosphorylated product was determined as a fraction of total peptide substrate using the Caliper LabChip 3000 according to the manufacturer's specifications. Ki values were then determined using the Morrison tight binding model. Morrison, J. F., Biochim. Biophys. Acta. 185:269-296 (1969); William, J. W. and Morrison, J. F., Meth. Enzymol., 63:437-467 (1979).

As a reminder, the Ki is the equilibrium dissociation constant of an inhibitor or competing ligand from its target. Read a high Ki as a looser hold on the target. The compound `O=C(Nc1nccc2nn(-c3c(Cl)cccc3Cl)cc12)C1CC1` [Example 1, N-(2-(2,6-Dichlorophenyl)-2H-pyrazolo[4,3-c]pyridin-4-yl)cyclopropanecarboxamide] showed a Ki of 1.3 nM. This counts as single-digit nanomolar.
Next, `Cc1cc(Nc2nccc3nn(-c4c(Cl)cccc4Cl)cc23)nc(C)n1` [Example 2, [2-(2,6-Dichlorophenyl)-2H-pyrazolo[4,3-c]pyridine-4-yl]-(2,6-dimethylpyrimidin-4-yl)amine]: 2 nM; `N#Cc1ccc(Nc2nccc3nn(-c4c(Cl)cccc4Cl)cc23)nc1` [Example 3, 6-[2-(2,6-Dichlorophenyl)-2H-pyrazolo[4,3-c]pyridin-4-ylamino]nicotinonitrile]: 3 nM.
Next, `COC(=O)Nc1nccc2nn(-c3c(Cl)cccc3Cl)cc12` [Example 6, [2-(2,6-Dichlorophenyl)-2H-pyrazolo[4,3-c]pyridine-4-yl]carbamic acid methyl ester]: 5.2 nM; `CNC(=O)Nc1nccc2nn(-c3c(Cl)cccc3Cl)cc12` [Example 7, 1-[2-(2,6-Dichlorophenyl)-2H-pyrazolo[4,3-c]pyridine-4-yl]-3-methylurea]: 3.3 nM; `O=C(Nc1nccc2nn(-c3c(F)cccc3Cl)cc12)C1CC1` [Example 15, N-(2-(2-chloro-6-fluorophenyl)-2H-pyrazolo[4,3-c]pyridin-4-yl)cyclopropanecarboxamide]: 1.6 nM.
With `Cc1cc(Nc2ncc(Cl)c3nn(-c4c(Cl)cc(C#N)cc4Cl)cc23)ncn1` [Example 30, 3,5-Dichloro-4-[7-chloro-4-(6-methylpyrimidin-4-ylamino)pyrazolo[4,3-c]pyridin-2-yl]benzonitrile], affinity was put at a Ki of 5.6 nM.
The compound `N#Cc1cc(Cl)c(-n2cc3c(Nc4cc(N)ncn4)ncc(F)c3n2)c(Cl)c1` [Example 34, 4-[4-(6-Amino-pyrimidin-4-ylamino)-7-fluoro-pyrazolo[4,3-c]pyridin-2-yl]-3,5-dichlorobenzonitrile.HCl] returned a Ki of 0.4 nM.
Take `OCc1cc(Nc2ncc(Br)c3nn(-c4c(Cl)cccc4Cl)cc23)ncn1` [Example 37, {6-[7-Bromo-2-(2,6-dichloro-phenyl)-2H-pyrazolo[4,3-c]pyridin-4-ylamino]-pyrimidin-4-yl}-methanol]: the Ki was determined as 0.4 nM.
As for `N#Cc1cnc(Nc2cc(N)ncn2)c2cn(-c3c(Cl)cccc3Cl)nc12` [Example 40, 4-(6-Aminopyrimidin-4-ylamino)-2-(2,6-dichlorophenyl)-2H-pyrazolo[4,3-c]pyridine-7-carbonitrile], the Ki amounted to 1.1 nM.
As for `OCCN1CCN(c2cc(Nc3nccc4nn(-c5c(Cl)cccc5Cl)cc34)ncn2)CC1` [Example 49, 2-(4-(6-((2-(2,6-dichlorophenyl)-2H-pyrazolo[4,3-c]pyridin-4-yl)amino)-pyrimidin-4-yl)piperazin-1-yl)ethan-1-ol], the figure is 1.9 nM.
`Cc1cc(Nc2nccc3nn(-c4c(Cl)cccc4Cl)cc23)ncc1C#N` [Example 53, 6-[2-(2,6-Dichlorophenyl)-2H-pyrazolo[4,3-c]pyridin-4-ylamino]-4-methyl-nicotinonitrile] gave a Ki of 1 nM.
`CS(=O)(=O)c1cc(Cl)c(-n2cc3c(NC(=O)C4CC4)nccc3n2)c(Cl)c1` [Example 67, N-(2-(2,6-dichloro-4-methane-sulphonyl-phenyl)-2H-pyrazolo[4,3-c]pyridine-4-yl)cyclopropane-carboxamide] registered a Ki of 14.9 nM. Compared with the last compound, the Ki is about 15-fold higher.
Compound `N#Cc1cc(Cl)c(-n2cc3c(NC(=O)C4CC4)nccc3n2)c(Cl)c1` [Example 69, N-(2-(2,6-dichloro-4-cyanophenyl)-2H-pyrazolo[4,3-c]pyridin-4-yl)cyclopropane-carboxamide] displayed a Ki of 2 nM. Compared with the last compound, the Ki is about 7.5-fold lower.
In turn, `Nc1cc(Nc2nccc3nn(-c4c(F)ccc(F)c4Cl)cc23)ncn1` [Example 81, N4-(2-(2-chloro-3,6-difluorophenyl)-2H-pyrazolo[4,3-c]pyridin-4-yl)pyrimidine-4,6-diamine] registered a Ki of 2.2 nM.
Regarding `CC(O)c1cc(Nc2ncc(F)c3nn(-c4c(Cl)cccc4C#N)cc23)ncn1` (stereo not shown) [Example 96, 3-Chloro-2-{7-fluoro-4-[6-(1-hydroxyethyl)-pyrimidin-4-ylamino]-pyrazolo[4,3-c]pyridin-2-yl}-benzonitrile], the Ki is 0.8 nM.
As for `N#Cc1cc(N)cc(Cl)c1-n1cc2c(Nc3cc(N)ncn3)ncc(F)c2n1` [Example 101, 5-Amino-2-[4-(6-aminopyrimidin-4-ylamino)-7-fluoropyrazolo[4,3-c]pyridin-2-yl]-3-chlorobenzonitrile formate salt], the figure is 105 nM; as for `N#Cc1cccc(Cl)c1-n1cc2c(Nc3cc(N)ncn3)ncc(Cl)c2n1` [Example 151, 2-(4-(6-aminopyrimidin-4-ylamino)-7-chloro-2H-pyrazolo[4,3-c]pyridin-2-yl)-3-chlorobenzonitrile], 0.1 nM; as for `Cc1cc(Nc2cc(Cl)c(-n3cc4c(Nc5cc(C)ncn5)nccc4n3)c(C#N)c2)ncn1` [Example 158, 3-chloro-5-(6-methylpyrimidin-4-ylamino)-2-(4-(6-methylpyrimidin-4-ylamino)-2H-pyrazolo[4,3-c]pyridin-2-yl)benzonitrile], 1.8 nM.
